Test results as given in US20250325511A1, “DIETARY BUTYRATE” (SOCIETE DES PRODUITS NESTLE S.A., priority 2019, published 2025).
Entries after “also recorded” stand apart in the source; their conditions may differ.

Tests used:
[1] = tested on: rabbit gastric lipase followed by porcine pancreatic lipase; experiment: Sequential in vitro digestion SGF (RGL) followed by SIF (PPL), pH-stat
[2] = biological target: T1, porcine pancreatic lipase (from pancreatin) (Sus scrofa, UniProt P00591)
T1 sequence (P00591 1-450): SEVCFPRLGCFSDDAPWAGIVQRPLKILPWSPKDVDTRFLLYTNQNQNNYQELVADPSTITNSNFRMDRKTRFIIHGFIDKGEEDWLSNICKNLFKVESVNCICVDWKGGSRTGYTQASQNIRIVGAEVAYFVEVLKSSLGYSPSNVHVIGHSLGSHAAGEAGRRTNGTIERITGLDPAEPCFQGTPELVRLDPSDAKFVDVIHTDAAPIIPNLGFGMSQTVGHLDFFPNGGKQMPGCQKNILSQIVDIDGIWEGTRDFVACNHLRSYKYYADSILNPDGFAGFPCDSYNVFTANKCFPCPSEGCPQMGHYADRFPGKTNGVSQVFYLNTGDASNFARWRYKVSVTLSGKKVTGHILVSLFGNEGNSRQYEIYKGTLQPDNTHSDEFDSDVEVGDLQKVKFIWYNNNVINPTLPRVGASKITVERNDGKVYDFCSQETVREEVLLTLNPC
T1 sequence (P02703 23-112 partner): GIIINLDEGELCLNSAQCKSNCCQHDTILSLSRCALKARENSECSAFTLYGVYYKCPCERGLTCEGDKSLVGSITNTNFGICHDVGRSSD

Initial lipolysis rate in SIF during SGF-SIF digestion ([1]; after 90 min SGF with rabbit gastric lipase, emulsion with 200 mg fat): 44.1 ± 8.8 µmol/min
Lipolysis by gastric lipase ([1]; indicated by decreased total fatty acid release in SIF after RGL pre-exposure): ~60%
Initial rate of lipolysis ([2]; SIF alone, emulsion with 200 mg fat, pH 6.8, 37° C.): 223 ± 59 µmol/min
Overall extent of lipid digestion ([2]; back titration to pH 11.5, after SIF and SGF-SIF (FIG. 2)): 101.5±0.9%
SMILES: CCCC(=O)OCC(COC(=O)CCC)OC(=O)CCC [tributyrin]
Hydrolysis in the stomach (gastric compartment of the model) ([1]; in words): considerable digestion; also recorded: extensive hydrolysis
